Measured values published in ChEMBL document CHEMBL1126505, “Syntheses of Cyclopentane, Cyclohexene and Olefin Oxazoles as Thromboxane A2/Endoperoxide Receptor Antagonists” (Bioorg Med Chem Lett, 1993).

Columns and labels:
[1] = biological target: T1, Thromboxane A2 receptor (Homo sapiens, UniProt P21731); experiment: Binding affinity was determined for Thromboxane A2 receptor in human platelet membrane using [3H]SQ-29,548 radioligand; assay type: cell membranes
T1 sequence (P21731 whole entry): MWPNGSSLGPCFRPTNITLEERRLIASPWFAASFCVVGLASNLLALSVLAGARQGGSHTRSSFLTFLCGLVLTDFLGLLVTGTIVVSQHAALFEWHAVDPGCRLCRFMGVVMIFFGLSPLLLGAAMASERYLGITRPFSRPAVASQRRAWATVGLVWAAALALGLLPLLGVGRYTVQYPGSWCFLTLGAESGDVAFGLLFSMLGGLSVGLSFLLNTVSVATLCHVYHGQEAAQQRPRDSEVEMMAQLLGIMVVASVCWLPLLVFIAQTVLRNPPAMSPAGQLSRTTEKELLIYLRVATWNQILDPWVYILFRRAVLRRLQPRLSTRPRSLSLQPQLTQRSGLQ

[2] = species: Homo sapiens; experiment: Tested for the ability to inhibit arachidonic acid induced platelet aggregation in human platelet rich plasma; assay type: functional; conditions: read-out: I50

Row | SMILES | Kd [1] [nM] | IC50 [2] [nM]
1 | O=C(O)CCc1ccccc1CC1=C(c2nc(C(=O)NCCc3ccc(Cl)cc3)co2)CCCC1 | 63.5 | 194
2 | O=C(O)CCc1ccccc1C[C@@H]1CCC[C@@H]1c1nc(C(=O)NCCCCC2CCCCC2)co1 | 23.8 | 107
3 | O=C(O)CCc1ccccc1CC1CCC[C@H]1c1nc(C(=O)NCCCCC2CCCCC2)co1 (single isomer, unassigned; (-)) | 4.3 | 15
4 | O=C(O)CCc1ccccc1C[C@@H]1CCC[C@H]1c1nc(C(=O)NCc2ccc(Cl)cc2)co1 | 0.5 | 338
5 | O=C(O)CCc1ccccc1C[C@H]1CCC[C@@H]1c1nc(C(=O)NCc2ccc(Cl)cc2)co1 | 3.3 | 5160
6 | C/C(Cc1ccccc1CCC(=O)O)=C(\C)c1nc(C(=O)NCCc2ccc(Cl)cc2)co1 | 37.3 | 235
